Reference: patent US4935415A, “UCN-01 and process for production thereof” (priority 1986, dated 1990)
Converted amounts (≈) assume the structure as drawn.

Key:
[1] = system: lymphocytic leukemia P388 tumor; test: Therapeutic effect on lymphocytic leukemia P388 tumor; type: in vivo, male CDF1 mice
Protocol: Therapeutic effect on lymphocytic leukemia P388 tumor:
Five male CDF1 mice each having a weight of about 22 g were used for each group as test animals, and 1×10^6 cells of lymphocytic leukemia P388 tumor were implanted intraperitoneally in the test animals. 24 hours after implantation, 0.2 ml of a phosphate buffer saline (hereafter referred to as PBS) containing UCN-01 was intraperitoneally administered.
The composition of PBS was 0.8% NaCl, 0.02% KCl, 1.15% Na2 HPO4, […] 0.02% KH2 PO4 (pH 7.0).
For comparison, 0.2 ml of PBS solution containing Staurosporine was intraperitoneally administered 24 hours after the implantation of the tumor cells. Increased life span (T/C) (T: mean survival days of the treated group, C: mean survival days of the control group) is shown in Table 5.

[2] = system: Staphylococcus aureus ATCC 6538P; test: Anti-bacterial activity, agar dilution method (MIC); type: cell-based; conditions: ATCC6538P, pH 7
Protocol: (§1) The minimum inhibitory concentration (MIC) against various microorganisms is shown below.
(§2) The anti-bacterial activity was measured by the agar dilution method, using a medium (pH 7) prepared by dissolving 3 g of Bacto-Tryptone (manufacturedby Difco Co., Ltd.), 3 g of meat extract, 1 g of yeast extract, 1 g of glucose and 16 g of agar in 1 (of water.

[3] = system: Bacillus subtilis No. 10707; test: as above; type: cell-based; conditions: pH 7
Protocol: as §1, §2

[4] = system: Shigella sonnei ATCC 9290; test: as above; type: cell-based; conditions: ATCC9290, pH 7
Protocol: as §1, §2

[5] = system: Salmonella typhi ATCC 9992; test: as above; type: cell-based; conditions: Salmonella enterica, pH 7
Protocol: as §1, §2

Escherichia coli ATCC 26 = test: as above; type: cell-based; conditions: ATCC26, pH 7
Protocol: as §1, §2

[6] = system: Klebsiella pneumoniae ATCC 10031; test: as above; type: cell-based; conditions: ATCC10031, pH 7
Protocol: as §1, §2

[7] = Acute toxicity (LD50), intraperitoneal administration to mice; conditions: mouse, in vivo, ip
Protocol: The acute toxicity value (LD50) was 30 mg/kg by intraperitoneal administration to mice.

[8] = LD50 of Staurosporine (note to Table 5); conditions: in vivo; species and route not printed in the note

SMILES | Increased Life Span (T/C) ([1]; 7.5 mg/kg, intraperitoneal, 24 hours after implantation) | Increased Life Span (T/C) ([1]; 15 mg/kg, intraperitoneal, 24 hours after implantation) | Increased Life Span (T/C): toxic ([1]; 30 mg/kg, intraperitoneal, 24 hours after implantation) | anti-tumor activity as compared with staurosporine ([1]; comparison with staurosporine, in words) | MIC [2] [µg/mL] | MIC [3] [µg/mL] | MIC [4] [µg/mL] | MIC [5] [µg/mL] | MIC (Escherichia coli ATCC 26) [µg/mL] | MIC [6] [µg/mL] | LD50 [7] [mg/kg] | Increased Life Span (T/C) ([1]; 1 mg/kg, intraperitoneal, 24 hours after implantation) | Increased Life Span (T/C) ([1]; 2 mg/kg, intraperitoneal, 24 hours after implantation) | Increased Life Span (T/C) ([1]; 4 mg/kg, intraperitoneal, 24 hours after implantation) | LD50 [8] [mg/kg]
CNC1CC2OC(C)(C1OC)n1c3ccccc3c3c4c(c5c6ccccc6n2c5c31)C(=O)NC4O (stereo not drawn) [UCN-01] | 1.12 | 1.24 | toxic | superior anti-tumor activity | 83 (≈ 172 µM) | > 100 | 100 (≈ 207 µM) | 83 (≈ 172 µM) | 83 (≈ 172 µM) | 83 (≈ 172 µM) | 30 | – | – | – | –
CN[C@@H]1C[C@H]2O[C@@](C)([C@@H]1OC)n1c3ccccc3c3c4c(c5c6ccccc6n2c5c31)C(=O)NC4 [Staurosporine, reference compound] | – | – | – | – | – | – | – | – | – | – | – | 1.10 | 1.12 | 1.08 | 6.6
